The results in this text go back to the OPERA property sets (Mansouri et al. 2018).

`Nc1ccn([C@H]2C[C@H](F)[C@@H](CO)O2)c(=O)n1` returned a lipophilicity (logP) of -0.89.

With `CC(C)N(C=Nc1ccn(C2CCC(CO)O2)c(=O)n1)C(C)C` (stereo not given), the logP came out at 0.72.

`O=c1nc(N=CN2CCCC2)ccn1C1CC(F)C(CO)O1` (stereo not given) came in with a logP of -0.16.

`CC(C)N(C=Nc1ccn(C2CC(F)C(CO)O2)c(=O)n1)C(C)C` (stereo not given) yielded a logP of 1.14.

`CCCN(/C=N/c1ccn([C@H]2CC[C@@H](CO)O2)c(=O)n1)CCC` returned a logP of 0.95.

With `O=c1nc(N=CN2CCOCC2)ccn1C1CCC(CO)O1` (stereo not given), the logP is -0.97.

The compound `CCN(C=Nc1ccn(C2CC(F)C(CO)O2)c(=O)n1)CC` (stereo not given) had a logP of 0.23.

In turn, `CCN(/C=N/c1ccn([C@H]2CC[C@@H](CO)O2)c(=O)n1)CC` had a logP of -0.06.

The compound `O=c1nc(N=CN2CCCC2)ccn1C1CCC(CO)O1` (stereo not given) yielded a logP of -0.47.

`O=c1nc(/N=C/N2CCCCC2)ccn1[C@H]1CC[C@@H](CO)O1` came in with a logP of 0.06.

`CN(C)C=Nc1ccn(C2CCC(CO)O2)c(=O)n1` (stereo not given) returned a lipophilicity (logP) of -0.95.

Compound `O=c1nc(/N=C/N2CCCCC2)ccn1[C@H]1C[C@H](F)[C@@H](CO)O1` displayed a logP of 0.36.

On to `CCCN(C=Nc1ccn(C2CC(F)C(CO)O2)c(=O)n1)CCC` (stereo not given), for which the logP turned out to be 1.35.

`O=c1nc(N=CN2CCOCC2)ccn1C1CC(F)C(CO)O1` (stereo not given) returned a logP of -0.68.

`CN(C)C=Nc1ccn(C2CC(F)C(CO)O2)c(=O)n1` (stereo not given) gave a log partition coefficient (logP) of -0.64.

Usually logP stands for a log measure of how a compound divides between an organic and an aqueous phase. Lower therefore signals lower lipophilicity.
